According to patent US11981702B2, “Compounds for fluorescence sensing of duplex formation” (San Diego State University Research Foundation, priority 2016, dated 2024):
Read-outs that look alike come from different tables or passages of the source. [8-DEA-tC] = 8-diethylamino tricyclic cytidine analogue (fluorescent), on 2'-deoxyribose

What was measured:
[1] = Quantum yield of fluorescence emission, comparative method of Williams et al., quinine sulfate standard (free nucleosides, single-stranded oligonucleotides); type: physicochemical; details: free nucleoside, 1,4-dioxane
[2] = Viscosity sensitivity of fluorescence in methanol-glycerol mixtures; type: physicochemical; details: 25° C.
Source text: It was hypothesized that the C—N bond appending the diethylamino group to tC may provide a molecular rotor effect, enabling non-emissive relaxation coupled to conformational change at the excited state. […] For this reason, it was hypothesized that slowed water dynamics in the major groove of the duplex could cause an increase in the fluorescence of 8-DEA-tC. To test this hypothesis, a comparison of the solvent viscosity sensitivity of fluorescence of the 8-DEA-tC nucleoside with parent tC and 9-(2,2-dicyanovinyl)julolidine (DCVJ, a frequently used reference compound for viscosity effects on fluorescence) using mixtures of glycerol and methanol was performed (see Examples section below).
The responsiveness of (8-DEA)tC, tC, and 9-(2,2-dicyanovinyl)julolidine (DCVJ) to viscosity changes using binary methanol-glycerol mixtures was determined.
Molecular rotors are known to have fluorescent properties that are dependent on the medium viscosity, the fluorescence spectra of parent tC and (8-DEA)tC were examined in methanol-glycerol mixtures ranging from 0 to 100% methanol in glycerol at 25° C. […]
A calibration plot of fluorescence intensity (I) versus viscosity (η) were constructed using the Foster-Hoffman equation ΦF=zη^α, relating the fluorescence quantum yield (ΦF) as a function of viscosity (η) and fluorophore and solvent-specific constants (z, α).

[3] = UV/Vis absorption and steady state emission spectra; type: physicochemical; details: free nucleoside, 1,4-dioxane
complementary strand [4] = assay: Quantum yield of fluorescence emission of double-stranded oligonucleotides after adding complementary strand; type: physicochemical; details: for increase in fluorescent quantum yield in duplex DNA as compared with the free nucleoside: matched duplex, depending on neighboring bases; for ds Φem: double-stranded oligonucleotide, 1x PBS buffer pH 7.4
Procedure: (§1) Quantum yields of fluorescence emission were determined using the comparative method of Williams et. al. (Analyst 1983, 108, 1067) and a fluorescence standard of quinine sulfate in 0.1M H2SO4 (Table 1 and FIG. 2). The single-stranded oligonucleotides have quantum yields of fluorescence emission ranging from Φem=0.01-0.03, all brighter than the free 8-DEA-tC nucleoside by up to a factor of five. Addition of the complementary sequences and duplex formation results in further fluorescence increase in all sequences, up to Φem=0.12 for sequence GC. This quantum yield is 20-fold greater than that of the free 8-DEA-tC nucleoside, the largest such increase reported to date for a fluorescent nucleoside analogue.
(§2) All photophysical experiments were measured in a quartz sub-micro cuvette (10 mm path length) purchased from Starnacell Inc. Solutions were prepared in 1×PBS buffer at pH 7.4. Steady state emission scans were recorded using a PTI QuantaMaster QM-400 and absorbances were measured on a Shimadzu UV-1700 Pharmaspec spectrometer. Quantum yield measurements were performed the comparative method of Williams et. al. and measured in duplicate, at minimum.[7] Quinine sulfate in 0.1M H2SO4 was used as a reference standard for all photophysical measurements. Measurements by using a commercial sample of pyrrolo-dC to obtain a fluorescence quantum yield of 0.046, matching the value of 0.05 as reported by the Tor group were validated.[8] All measurements were taken with an absorbance range of 0.01-0.1. Subsequent dilutions were performed stepwise in order to obtain a minimum of five absorbance and emission spectra for quantum yield determinations. Representative data from these quantum yield measurements is plotted below. Quantum yield determinations were obtained using the following equation: […]
Samples of double-stranded oligonucleotides were prepared using a known concentration of single-stranded oligonucleotide and adding a total of 2.4 equivalents of complementary strand at room temperature. A single-strand absorbance and emission were taken prior to the addition of the first 1.2 equivalents of complementary strand for purposes of single-strand calculation and verification of hybridization. An additional 1.2 equivalent is added after the first double-strand to ensure that complete hybridization was achieved. Thermal annealing procedures had no effect on the measurements as expected, given that these sequences were chosen to have no competing, stable secondary structures.

[5] = Quantum yield of fluorescence emission, comparative method of Williams et al., quinine sulfate standard (free nucleosides, single-stranded oligonucleotides); type: physicochemical; details: for ss Φem: single-stranded oligonucleotide, 1x PBS buffer pH 7.4
Procedure: as §1, §2
The determination of quantum yields for single-stranded oligonucleotides containing 8-DEA tC were calculated using the integrated emission intensity measurements of the single strand prior to the addition of the complementary strand, with the following equation. This method was validated by comparison with and confirmed with a SS quantum yield experiment.

[6] = UV/Vis absorption and steady state emission spectra; type: physicochemical; details: for ds λmax,abs / ds λmax,em: double-stranded; for ds λmax,abs / ds λmax,em / λmax,abs (ss) / λmax,em (ss): 1x PBS buffer pH 7.4; for λmax,abs (ss) / λmax,em (ss): single-stranded
Procedure: as §2
Normalized absorption and emission plots of single-stranded oligonucleotides and double-stranded oligonucleotides in 1×PBS buffer at pH 7.4 were determined accordingly.

[7] = Stern-Volmer analysis of chloride quenching; type: physicochemical; details: 0 mM to 180 mM NaCl
Procedure: To test the ability of the duplex to attenuate chloride quenching of 8-DEA-tC, a Stern-Volmer analysis was performed using the 8-DEA-tC nucleoside and the TT duplex oligonucleotide (see Examples section below). […] In contrast, chloride has a modest quenching effect on 8-DEA-tC when present in the matched TT duplex.
In order to assess the magnitude that chloride, present in our buffers, would quench the fluorescent cytidine analogues, a Stern-Volmer analysis was performed spanning from 0 mM NaCl to 180 mM NaCl to mimic the environment of the 1XPBS buffer used in the fluorescence measurements of the oligomers.
A solution fluorophore was prepared and a known volumes of a 0.5 M NaCl solution were titrated in and the resulting fluorescence change was measured. The dilution factor was taken into account when calculating integrated fluorescence intensity.

[8] = value reported by the Tor group; cited from earlier work
DNA-RNA heteroduplex = assay: Fluorescence turn-on response in DNA-RNA heteroduplex; type: physicochemical; details: 1x PBS buffer at pH 7.4
Source text: The RNA version (Y═OH) has been synthesized and characterized. […] The shape (conformation) of double-stranded nucleic acids can vary, and there are three major forms: A, B, and Z. Double-stranded DNA is naturally B form. Double-stranded RNA is naturally A form. And a DNA-RNA heteroduplex also naturally takes A form. For that reason, it is possible to use a DNA-RNA heteroduplex to predict fluorescence properties in pure RNA.

complementary strand [9] = assay: CD melting temperature of oligonucleotide duplexes (ellipticity at 255 nm); type: physicochemical; details: for ΔTm: Tm for natural DNA duplex subtracted from Tm for the 8-DEA-tC-containing duplex; for Tm: duplex 5 μM in PBS pH 7.4
Procedure: UV CD spectra of oligonucleotide duplexes at a concentration of 5 μM in phosphate buffered saline (10 mM sodium phosphate, pH 7.4, […] potassium chloride, 137 mM sodium chloride) were collected at 25° C. in a 1 cm path length cell on an Aviv model 420 spectrophotometer equipped with a Peltier temperature controller. Background-subtracted spectra were smoothed and normalized to concentration using A260 nm as calculated from detector voltage using the following equation and converted to standard units. […] 255 nm was monitored from 15° C. to 75° C. at 1° C. increments. The TM of each duplex was calculated by fitting the raw data to a two-state model in Igor Pro. Melting curves are reported as fraction unfolded.

matching complement = assay: Visual discrimination of single nucleotide mismatch under hand-held UV lamp; type: physicochemical; details: 0.26 mM in 0.5X PBS buffer, versus oligo alone and mismatch duplex
Procedure: Next, the ability of 8-DEA-tC to distinguish single nucleotide by a visible fluorescence response was tested (FIG. 5). 0.26 mM solutions of GC oligo in 0.5X PBS buffer were prepared with the GC oligo alone, a duplex with the matching complement, and a duplex with an 8-DEA-tC mismatch.

Compound	ds Φem (complementary strand [4])	ss Φem [5]	ds λmax,abs [6] [nm]	ds λmax,em [6]	λmax,abs (ss) [6] [nm]	λmax,em (ss) [6]	ΔTm (complementary strand [9])	Tm (complementary strand [9]) [°C]	also measured
CCN(CC)c1ccc2c(c1)Nc1nc(=O)n([C@H]3CC(O)[C@@H](CO)O3)cc1S2 (stereo partly drawn) [8-DEA-tC, 8-Diethylamino-tricyclic-2′-deoxy-β-D-ribonucleoside]	–	–	–	–	–	–	–	–	Φem [1]: 0.06; response of fluorescence intensity to viscosity [2]: positively correlated to viscosity; λmax,abs [3]: 389 nm; λmax,em [3]: 524 nm; increase in Φem when mispaired with A (complementary strand [4]; 8-DEA-tC opposite A in duplex): less than 2 fold; Φem opposite an abasic site (complementary strand [4]; 8-DEA-tC opposite abasic site (dSpacer) in duplex): effectively the same as for the free nucleoside; increase in fluorescent quantum yield in duplex DNA as compared with the free nucleoside (complementary strand [4]): ≤ 20 fold; sensitivity to quenching by protic solvent relative to parent tC [5]: approximately twice as sensitive; Φem in deuterated buffer ([5]; deuterated 1X PBS buffer): 0.012; Φem ([5]; free nucleoside, 1x PBS buffer): 0.006; increase of Φem on solvent change ([5]; free nucleoside, 1x PBS buffer to 1,4-dioxane): 10 fold; ε ([6]; free nucleoside, 1x PBS buffer): 2700 M⁻¹ cm⁻¹; λmax,abs ([6]; free nucleoside, 1x PBS buffer): 395 nm; λmax,em ([6]; free nucleoside, 1x PBS buffer): 493 nm; effect of chloride on fluorescence [7]: more fluorescent with increasing chloride concentration
N#CC(C#N)=Cc1cc2c3c(c1)CCCN3CCC2 [DCVJ, 9-(2,2-dicyanovinyl)julolidine, reference compound]	–	–	–	–	–	–	–	–	response of fluorescence intensity to viscosity [2]: three-fold greater
Cc1cc2cn([C@H]3C[C@H](O)[C@@H](CO)O3)c(=O)nc2[nH]1 [pyrrolo-dC, reference compound]	–	–	–	–	–	–	–	–	fluorescence quantum yield ([5]; commercial sample, method validation): 0.046; fluorescence quantum yield [8]: 0.05
AA: 5′-CGC-AAX-ATC-G-3′ (SEQ ID NO: 18), X = 8-DEA-tC (DNA CGCAACATCG; DNA, [8-DEA-tC] at 6, backbone not given here)	0.042	0.008	410	498 nm	415	497 nm	-2.6 °C	48.4	fluorescence turn-on effect in DNA-RNA heteroduplex relative to double-stranded DNA (DNA-RNA heteroduplex): at least three times better
CA: 5′-CGC-ACX-ATC-G-3′ (SEQ ID NO: 13), X = 8-DEA-tC (DNA CGCACCATCG; DNA, [8-DEA-tC] at 6, backbone not given here)	0.017	0.014	410	494 nm	420	493 nm	+2.1 °C	57.4	–
CC: 5′-CGC-ACX-CTC-G-3′ (SEQ ID NO: 15), X = 8-DEA-tC (DNA CGCACCCTCG; DNA, [8-DEA-tC] at 6, backbone not given here)	0.024	0.013	413	496 (496) nm	421	496 (496) nm	+6.7 °C	60.2	–
GA: 5′-CGC-AGX-ATC-G-3′ (SEQ ID NO: 10), X = 8-DEA-tC (DNA CGCAGCATCG; DNA, [8-DEA-tC] at 6, backbone not given here)	0.050	0.020	422	499(499) nm	425	499(499) nm	-5.1 °C	50.7	–
GC: 5′-CGC-AGX-CTC-G-3′ (SEQ ID NO: 12), X = 8-DEA-tC (DNA CGCAGCCTCG; DNA, [8-DEA-tC] at 6, backbone not given here)	0.12	0.032	348	500 nm	425	499 nm	-14.5 °C	49.1	increase in fluorescent quantum yield in duplex DNA as compared with the free nucleoside (complementary strand [4]): 20 fold; visible fluorescence response of matched duplex (matching complement): large increase in fluorescence
GG: 5′-CGC-AGX-GTC-G-3′ (SEQ ID NO: 14), X = 8-DEA-tC (DNA CGCAGCGTCG; DNA, [8-DEA-tC] at 6, backbone not given here)	0.056	0.027	400	499 nm	415	498 nm	-7.0 °C	58.2	–
TA: 5′-CGC-ATX-ATC-G-3′ (SEQ ID NO: 16), X = 8-DEA-tC (DNA CGCATCATCG; DNA, [8-DEA-tC] at 6, backbone not given here)	0.026	0.014	420	495 (495) nm	417	495 (495) nm	-1.6 °C	48.7	–
